Laboratory results: PMC6199744, “Development of Chemical Proteomics for the Folateome and Analysis of the Kinetoplastid Folateome” (ACS Infectious Diseases, 2018)
Like-named read-outs stand apart in the source and are kept apart here.

What was measured:
Type in all cases: binding
[1] = target: T1, HeLa cell extract proteins (Homo sapiens, UniProt P24666)
T1 construct: endogenous in cells; host or cells: HeLa cell extract
T1 sequence (P24666 1-158): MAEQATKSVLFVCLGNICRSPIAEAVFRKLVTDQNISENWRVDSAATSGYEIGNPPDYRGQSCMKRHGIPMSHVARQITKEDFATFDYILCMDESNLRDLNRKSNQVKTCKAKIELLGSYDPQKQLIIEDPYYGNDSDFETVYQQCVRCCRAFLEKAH

[2] = target: T2, HeLa cell extract proteins (Homo sapiens, UniProt P55060)
T2 construct: endogenous in cells; host or cells: HeLa cell extract
T2 sequence (P55060 1-971): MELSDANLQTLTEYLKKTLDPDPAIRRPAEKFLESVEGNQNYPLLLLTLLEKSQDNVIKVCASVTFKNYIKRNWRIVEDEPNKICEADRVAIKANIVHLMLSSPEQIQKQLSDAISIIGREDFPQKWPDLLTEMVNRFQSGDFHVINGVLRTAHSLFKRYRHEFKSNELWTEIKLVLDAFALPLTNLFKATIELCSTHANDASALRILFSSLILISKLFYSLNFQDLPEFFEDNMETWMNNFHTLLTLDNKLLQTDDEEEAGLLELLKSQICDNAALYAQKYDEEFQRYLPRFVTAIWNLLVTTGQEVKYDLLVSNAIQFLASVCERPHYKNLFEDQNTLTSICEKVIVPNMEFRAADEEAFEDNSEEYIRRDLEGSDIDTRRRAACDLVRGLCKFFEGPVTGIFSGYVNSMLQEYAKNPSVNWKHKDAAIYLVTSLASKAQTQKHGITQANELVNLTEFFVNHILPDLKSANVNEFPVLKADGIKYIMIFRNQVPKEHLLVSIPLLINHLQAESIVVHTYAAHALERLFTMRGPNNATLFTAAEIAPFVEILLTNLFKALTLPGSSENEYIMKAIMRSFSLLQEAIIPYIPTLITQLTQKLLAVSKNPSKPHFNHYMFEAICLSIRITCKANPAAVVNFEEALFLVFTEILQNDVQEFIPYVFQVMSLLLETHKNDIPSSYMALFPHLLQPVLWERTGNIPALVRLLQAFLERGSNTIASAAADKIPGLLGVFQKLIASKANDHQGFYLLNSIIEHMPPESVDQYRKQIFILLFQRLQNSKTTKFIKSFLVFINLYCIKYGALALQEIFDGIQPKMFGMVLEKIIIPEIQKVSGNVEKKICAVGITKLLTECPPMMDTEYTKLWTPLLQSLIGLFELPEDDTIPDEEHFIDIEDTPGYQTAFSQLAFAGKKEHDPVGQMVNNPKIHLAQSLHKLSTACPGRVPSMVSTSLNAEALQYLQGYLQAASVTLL

[3] = target: T3, HeLa cell extract proteins (Homo sapiens, UniProt Q8IXB1)
T3 construct: endogenous in cells; host or cells: HeLa cell extract
T3 sequence (Q8IXB1 33-793): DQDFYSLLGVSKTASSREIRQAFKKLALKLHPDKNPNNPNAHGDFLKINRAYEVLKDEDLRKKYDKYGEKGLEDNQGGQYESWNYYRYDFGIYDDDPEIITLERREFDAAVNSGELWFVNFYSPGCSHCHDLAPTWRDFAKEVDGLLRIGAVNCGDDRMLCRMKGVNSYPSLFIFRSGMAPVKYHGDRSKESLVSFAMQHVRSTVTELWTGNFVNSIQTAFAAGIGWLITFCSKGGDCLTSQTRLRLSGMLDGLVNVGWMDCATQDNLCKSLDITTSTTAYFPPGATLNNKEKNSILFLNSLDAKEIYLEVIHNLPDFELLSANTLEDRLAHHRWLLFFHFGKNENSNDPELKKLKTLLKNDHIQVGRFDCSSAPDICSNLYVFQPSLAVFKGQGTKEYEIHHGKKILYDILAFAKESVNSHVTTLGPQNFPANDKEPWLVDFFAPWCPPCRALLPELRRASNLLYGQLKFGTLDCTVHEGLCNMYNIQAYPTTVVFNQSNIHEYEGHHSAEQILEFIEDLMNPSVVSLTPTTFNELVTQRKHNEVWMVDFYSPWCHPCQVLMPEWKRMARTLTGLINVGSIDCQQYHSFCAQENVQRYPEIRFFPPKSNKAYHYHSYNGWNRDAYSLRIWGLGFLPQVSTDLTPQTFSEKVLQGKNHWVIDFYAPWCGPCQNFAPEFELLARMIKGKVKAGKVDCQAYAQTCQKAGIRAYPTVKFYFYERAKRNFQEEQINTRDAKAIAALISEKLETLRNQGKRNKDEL

[4] = target: T4, HeLa cell extract proteins (Homo sapiens, UniProt Q01105)
T4 construct: endogenous in cells; host or cells: HeLa cell extract
T4 sequence (Q01105 whole entry): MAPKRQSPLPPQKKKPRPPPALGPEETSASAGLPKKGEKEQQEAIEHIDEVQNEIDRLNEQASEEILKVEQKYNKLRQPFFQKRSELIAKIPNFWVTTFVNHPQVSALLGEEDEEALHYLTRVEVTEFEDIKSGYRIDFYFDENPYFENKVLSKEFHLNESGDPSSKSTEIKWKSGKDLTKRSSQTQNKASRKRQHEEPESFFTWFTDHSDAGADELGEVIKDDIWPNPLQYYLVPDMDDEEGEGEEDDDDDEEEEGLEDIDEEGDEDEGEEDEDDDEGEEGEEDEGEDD

[5] = target: T5, HeLa cell extract proteins (Homo sapiens, UniProt Q8NF37)
T5 construct: endogenous in cells; host or cells: HeLa cell extract
T5 sequence (Q8NF37 1-534): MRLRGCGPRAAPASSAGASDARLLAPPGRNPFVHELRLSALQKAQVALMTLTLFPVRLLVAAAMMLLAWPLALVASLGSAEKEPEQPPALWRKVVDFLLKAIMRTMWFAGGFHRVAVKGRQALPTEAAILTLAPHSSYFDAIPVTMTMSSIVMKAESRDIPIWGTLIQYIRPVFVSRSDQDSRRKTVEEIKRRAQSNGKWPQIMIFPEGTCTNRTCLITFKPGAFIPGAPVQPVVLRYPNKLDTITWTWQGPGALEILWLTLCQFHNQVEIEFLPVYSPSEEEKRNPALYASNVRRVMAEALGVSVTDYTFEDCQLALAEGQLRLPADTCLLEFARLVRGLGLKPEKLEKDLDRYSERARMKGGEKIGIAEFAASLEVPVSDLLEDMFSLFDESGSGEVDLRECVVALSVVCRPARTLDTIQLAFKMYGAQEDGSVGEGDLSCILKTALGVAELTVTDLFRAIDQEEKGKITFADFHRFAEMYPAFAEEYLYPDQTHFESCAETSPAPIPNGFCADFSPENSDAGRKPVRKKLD

[6] = target: T6, HeLa cell extract proteins (Homo sapiens, UniProt Q99613)
T6 construct: endogenous in cells; host or cells: HeLa cell extract
T6 sequence (Q99613 whole entry): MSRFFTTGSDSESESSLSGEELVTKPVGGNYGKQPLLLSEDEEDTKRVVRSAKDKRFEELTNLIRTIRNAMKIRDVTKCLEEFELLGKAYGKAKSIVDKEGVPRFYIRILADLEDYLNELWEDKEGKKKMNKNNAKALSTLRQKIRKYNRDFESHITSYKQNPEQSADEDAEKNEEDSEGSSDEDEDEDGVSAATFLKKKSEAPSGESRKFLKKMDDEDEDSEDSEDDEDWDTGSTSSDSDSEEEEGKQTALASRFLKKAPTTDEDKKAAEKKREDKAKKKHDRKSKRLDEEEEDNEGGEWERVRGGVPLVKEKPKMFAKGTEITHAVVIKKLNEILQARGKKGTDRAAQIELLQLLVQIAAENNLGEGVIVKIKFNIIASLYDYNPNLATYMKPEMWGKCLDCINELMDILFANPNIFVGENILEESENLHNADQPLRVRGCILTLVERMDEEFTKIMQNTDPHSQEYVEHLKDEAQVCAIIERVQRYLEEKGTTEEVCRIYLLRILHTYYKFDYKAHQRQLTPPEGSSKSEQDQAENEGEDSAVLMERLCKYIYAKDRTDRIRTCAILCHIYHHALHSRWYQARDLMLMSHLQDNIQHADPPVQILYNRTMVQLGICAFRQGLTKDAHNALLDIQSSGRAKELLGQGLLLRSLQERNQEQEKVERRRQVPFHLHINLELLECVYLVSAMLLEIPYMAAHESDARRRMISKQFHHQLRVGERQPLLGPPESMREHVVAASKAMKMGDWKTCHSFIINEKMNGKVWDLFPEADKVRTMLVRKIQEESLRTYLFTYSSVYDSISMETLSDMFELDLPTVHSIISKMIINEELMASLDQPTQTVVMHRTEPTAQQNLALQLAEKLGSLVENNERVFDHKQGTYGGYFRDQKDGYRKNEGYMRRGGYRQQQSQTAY

[7] = HeLa, protein SET (ISOFORM 1 OF PROTEIN SET.)

Row | Structure (SMILES) | fold changes relative to vehicle control ([1]; protein ACP1, HeLa) | fold changes relative to vehicle control ([2]; protein CSE1L, HeLa) | fold changes relative to vehicle control ([3]; HeLa, protein DNAJC10) | fold changes relative to vehicle control ([4]; HeLa, captured protein SET) | fold changes relative to vehicle control ([5]; protein LPCAT1, HeLa) | fold changes relative to vehicle control ([6]; protein EIF3C, HeLa) | fold changes relative to vehicle control ([1]; HeLa, protein ACP1) | fold changes relative to vehicle control [4, 7] | fold changes relative to vehicle control ([5]; HeLa, protein LPCAT1) | fold changes relative to vehicle control [1] | fold changes relative to vehicle control [2] | fold changes relative to vehicle control [3] | fold changes relative to vehicle control [4] | fold changes relative to vehicle control [5] | fold changes relative to vehicle control [6]
1 | Nc1nc2c(c(=O)[nH]1)N(C=O)C(CNc1ccc(C(=O)N[C@@H](CCC(=O)O)C(=O)O)cc1)CN2 (stereo partly drawn) [LEU, leucovorin] | 0.72 | 0.94 | 0.89 | 0.98 | 0.85 | 1.02 |  |  |  |  |  |  |  |  | 
2 | NCCCNc1ccc(C(=O)NC(CCC(=O)O)C(=O)O)cc1 (stereo not drawn) [compound 7] | 0.71 | 1.04 | 0.94 | 0.84 | 1.07 | 0.88 |  |  |  |  |  |  |  |  | 
3 | CCCCCCOc1cccc(Cc2cnc(N)nc2N)c1 [compound 2] |  | 1.52 | 0.85 |  |  | 1.19 | 0.98 | 3.28 fold | 1.07 |  |  |  |  |  | 
4 | CCCCCCOc1ccc(Cc2cnc(N)nc2N)cc1 [compound 1] |  | 1.02 | 0.89 |  |  | 1.1 | 0.77 | 2.11 fold | 0.93 |  |  |  |  |  | 
5 | Nc1nc2cccc(-c3ccccc3)c2n1Cc1ccc(Cl)c(Cl)c1 [compound 3] |  | 1.06 | 1.04 |  |  | 1.08 | 0.71 | 0.9 fold | 1.11 |  |  |  |  |  | 
6 | NCCOCCOCC(=O)Nc1nc2ncc(CNc3ccc(C(=O)NC(CCC(=O)O)C(=O)O)cc3)nc2c(=O)[nH]1 (stereo not drawn) [compound 6] | 1.04 | 1.09 | 0.89 | 1.16 | 0.92 | 1.02 |  |  |  |  |  |  |  |  | 
7 | Nc1nc2[nH]cc(CCc3ccc(C(=O)N[C@@H](CCC(=O)O)C(=O)O)cc3)c2c(=O)[nH]1 [PTX, pemetrexed] |  |  |  |  |  |  |  |  |  | 0.84 | 0.88 | 0.91 | 1.08 | 1 | 0.94
